Results from PMC11284790, “Targeting Myeloperoxidase Ameliorates Gouty Arthritis: A Virtual Screening Success Story” (Journal of Medicinal Chemistry, 2024).
Read-outs that look alike come from different tables or passages of the source.

Experiments:
[1] = system: PARP1 in RPE1-hTERT cells; test: PARP1 off-target assay: H2O2-induced ADP-ribosylation; type: cell-based; details: RL6 1, 10 and 50 μM; olaparib 10 μM; 600 μM H2O2 for 10 min
Experimental: After 1 h of pretreatment, the cells were treated with 600 μM H2O2 (Sigma) in PBS for 10 min at 37 °C. Cells were lysed in preheated Laemmli buffer devoid of beta-mercaptoethanol and bromophenol blue, and the lysates were boiled for 15 min. Protein concentration was determined using a BCA protein quantification kit (Pierce) and normalized. Beta-mercaptoethanol and bromophenol blue were then added, and the lysates were boiled again for 15 min. Proteins were separated in a 10% SDS-PAGE gel and then transferred to nitrocellulose membranes (Bio-Rad). […] Membranes were incubated with ECL Prime (Amersham), and the signals were detected using a Chemidoc MP Imaging System (Bio-Rad). […] Signals were quantified using ImageJ software.
(C) ADP-ribosylation in RPE1-hTERT cells was
triggered by H2O2 (600 µM) for 10 min. (D) Gel densitometry quantified by ImageJ
software, n=3. A concentration of 0.1% DMSO was used.

hTERT-RPE1 cells = test: Cell viability assay (XTT); type: cell-based; details: 2-50 μM, 72 h
Experimental: hTERT-RPE1 cells were seeded in 24-well plates at 2 × 10^4 cells per well. After 24 h, cells were treated with 2, 5, 10, 25, or 50 μM RL6, RL7, or PTU in a culture medium (DMEM/F-12 with HEPES and 10% FBS). DMSO was added to untreated cells at 0.42% concentration as a vehicle control. After 72 h of treatment, cells were washed with PBS and left in 200 μL of XTT working solution for 3 h. The working solution was prepared according to manufacturer’s instructions but diluted eightfold in PBS. The supernatant was transferred to a 96-well plate; absorbance was read at 450 and 750 nm in a Synergy (Biotek, Winooski, VE, USA) plate reader and presented as percentage of control.
Figure S5. Evaluation of cytotoxicity by XTT. hTERT-RPE1 cells were seeded in 24-
well plates at 2 × 10^4 cells per well. 24h later, cells were treated with RL6, RL7 or PTU
(2, 5, 10, 25, 50 µM) in culture medium (DMEM/F-12 with HEPES and 10% FBS).
Viable cells were assessed 72h after treatments by measuring absorbance of the
supernatant at 450 and 750 nm and are presented as percentage of control (0.42%
DMSO). Data are mean ± SEM of three independent experiments.

IL-1β = test: Paw tissue IL-1β level after MSU (ELISA); type: in vivo, male C57BL/6 mice; details: intraperitoneal pretreatment (RL6 30 mg/kg), tissue collected at 6 h
Experimental: The remaining part of the homogenate was treated with a solution of protease/phosphatase inhibitors (1 mM phenylmethylsulfonyl fluoride, 10 μg/mL leupeptin, and 10 μg/mL trypsin inhibitor) and centrifuged at 10,000g (10 min at 4 °C). The obtained supernatants were subjected to 1:2 dilution in PBS and subsequently used for the assessment of IL-1β and IL-6 using murine enzyme-linked immunosorbent assay kits, specifically a sandwich ELISA technique, following manufacturer’s instructions (BioLegend, CA, USA). The protein content within the samples was determined by using the Bradford method (1976). The results were quantified and expressed in pg/mg of protein (Bio-Rad, Hercules, CA, USA).[76]

Human leukocyte MPO [2] = target: T1, Human leukocyte MPO (Homo sapiens, UniProt P05164); test: MPO chlorinating activity assay (taurine chloramine/TMB); type: biochemical; parameters: Human leukocyte MPO (EC 1.7.1.11) was purchased from Planta Natural Products; purchased Planta Natural Products (Vienna, Austria); host or cells: human leukocytes; details: for IC50: pH 7.4
T1 sequence (P05164 279-745 limits assumed): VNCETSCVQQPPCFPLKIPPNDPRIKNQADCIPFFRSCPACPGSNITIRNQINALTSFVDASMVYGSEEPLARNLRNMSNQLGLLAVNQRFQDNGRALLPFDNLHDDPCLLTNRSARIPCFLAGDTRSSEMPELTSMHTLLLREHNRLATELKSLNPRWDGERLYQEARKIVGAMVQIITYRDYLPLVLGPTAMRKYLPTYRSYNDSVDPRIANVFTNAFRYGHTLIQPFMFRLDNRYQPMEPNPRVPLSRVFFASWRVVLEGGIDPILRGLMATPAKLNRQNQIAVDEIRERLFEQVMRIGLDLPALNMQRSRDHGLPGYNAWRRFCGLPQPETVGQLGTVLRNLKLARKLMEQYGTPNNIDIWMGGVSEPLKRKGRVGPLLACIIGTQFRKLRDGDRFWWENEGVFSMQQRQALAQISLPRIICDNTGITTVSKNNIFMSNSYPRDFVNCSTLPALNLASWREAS
T1 sequence (P05164 165-278 limits assumed): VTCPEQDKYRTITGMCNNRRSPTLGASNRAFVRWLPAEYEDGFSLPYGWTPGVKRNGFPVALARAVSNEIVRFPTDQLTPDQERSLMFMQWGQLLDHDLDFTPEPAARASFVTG
Experimental: Chlorinating activity was carried out in phosphate buffer (20 mM, pH 7.4). Compounds (20 μM) were dissolved in 0.03% DMSO, MPO (10 nM), diethylenetriaminepentaacetic acid (100 μM), cetyltrimethylammonium chloride (0.03%), NaCl (140 mM), and taurine (5 mM).[31] This mixture was incubated at 37 °C for 15 min before adding 40 μM hydrogen peroxide. The reaction ran for 8 min and was then stopped by catalase (20 μg/mL). Oxidation of TMB (2 mM) (3,3,5,5-tetramethylbenzidine) by taurine chloroamine catalyzed by iodide (100 μM) was quantified at 650 nm.[33] Results were expressed as a percentage of the control (vehicle). IC50 was calculated by nonlinear regression using the Hill equation present in GraphPad Prism 5 software.

Human leukocyte MPO [3] = target: T1, Human leukocyte MPO; test: Reversibility test (residual peroxidase activity after 200-fold dilution); type: biochemical; parameters: Human leukocyte MPO (EC 1.7.1.11) was purchased from Planta Natural Products; purchased Planta Natural Products (Vienna, Austria); host or cells: human leukocytes; details: 100 nM MPO, 20 μM inhibitor, 30 min, then 200-fold dilution
Experimental: Reversibility of the inhibition was analyzed by peroxidase residual activity.[77] […] After incubation, the system was diluted 200-fold using acetate buffer ([…], pH 5.4) in the presence of TMB (2 mM dissolved in 10% dimethylformamide). After a new hydrogen peroxide addition (2 μM), the oxidation of TMB was quantified at 655 nm.

[4] = Stopped-flow reaction of compound with HOCl (fluorescence decay); details: 20 μM compound, 250 μM HOCl, up to 1 s
Experimental: The fast oxidation of RL7 was monitored in a stopped-flow spectrophotometer (Applied Photophysics SX20) using the intrinsic RL7 fluorescence (λex = 306 nm and λem = above 340 nm). The reaction of RL7 (20 μM in 0.3% DMSO) with HOCl (250 μM) was performed in phosphate buffer (20 mM, pH 7.4), diethylenetriaminepentaacetic acid (100 μM), and NaCl (140 mM). Data were obtained within 1 s.

[5] = 20 μM compound, 10 nM MPO, 140 mM NaCl, 5 mM taurine, 40 μM H2O2, pH 7.4, read-out: % Inhibition (at 20 μM) Chlorinating
[6] = supplementary csv copy of Table 1, read-out: % Inhibition (Chlorinating)

Nc1cc2c3c(cccc3c1)C(=O)N(N)C2=O [RL6]
inhibition of H2O2-induced ADP-ribosylation [1]: failed to inhibit
cytotoxicity to hTERT-RPE1 cells (hTERT-RPE1 cells): no cytotoxicity
decrease in IL-1β levels in hind paw tissue (IL-1β): 48.3%
IC50 (Human leukocyte MPO [2]; 10 nM MPO, 140 mM NaCl): 270 nM
inhibition at 20 µM (Human leukocyte MPO [2]; [5]): 86.5 ± 15.3%
chlorinating/peroxidatic activity inhibition ratio (Human leukocyte MPO [2]; ratio of % inhibition at 20 μM, ~1 indicates true enzyme inhibitor): ~1
inhibition at 20 µM (Human leukocyte MPO [2]; [6]): 86.5 ± 15.3%
reversibility of MPO inhibition (residual peroxidase activity) (Human leukocyte MPO [3]): reversible inhibition

CN1CCc2nc3sc(C(=O)Nc4cccc(C#N)c4)c(N)c3cc2C1 [RL7]
reaction with HOCl (fluorescence decay) [4]: rapidly reacts with HOCl
cytotoxicity to hTERT-RPE1 cells (hTERT-RPE1 cells): highly cytotoxic at 50 μM
decrease in IL-1β levels in hind paw tissue (IL-1β): unable to decrease
IC50 (Human leukocyte MPO [2]; 10 nM MPO, 140 mM NaCl): 560 nM
% Inhibition (at 20 μM) Chlorinating (Human leukocyte MPO [2]; 20 μM compound, 10 nM MPO, 140 mM NaCl, 5 mM taurine, 40 μM H2O2, pH 7.4): active against chlorinating activity only
inhibition at 20 µM (Human leukocyte MPO [2]; [5]): 84.9 ± 17%
inhibition at 20 µM (Human leukocyte MPO [2]; [6]): 84.9 ± 17%
